According to patent US8067583B2, “Method for synthesizing furanosteroids” (Trustees of Dartmouth College, priority 2006, dated 2011):

Experiments:
PI3-kinase = settings: read-out: IC50, inhibitor of PI3-kinase; cited from earlier work
[1] = storage stability of isolated isomers; type: physicochemical
Procedure: A solution of 50.0 mg (0.136 mmol, 1.0 eq) of aldehyde 18 in 13.6 mL of dry CH2Cl2 was stirred in a 25 mL round bottom flask at room temperature under argon. To this solution was slowly added 271 μL (1.0 M in CH2Cl2, 0.271 mmol, 2.0 eq) of TiCl4. […] The solution was then diluted with CH2Cl2 and washed with H2O. The aqueous portion was then extracted three times with CH2Cl2. The combined organic fractions were then dried over MgSO4 and concentrated. Purification via silica gel chromatography (hexane/EtOAc) gave 20.4 mg (59%) of the syn-isomer 19-Syn and 5.4 mg (16%) of the anti-isomer 19-Anti as unstable brown oils. […] The decomposition was of a general nature and none of the stable, known retro-aldol product was observed.

[2] = molecular target: mammalian Polo-like kinase (Homo sapiens, UniProt P53350); settings: cited from earlier work
PI3K-Beta = PI3K-Beta (Homo sapiens, UniProt P42338); assay: activity against PI3K-Beta; type: biochemical
Excerpt: Novel furanosteroids produced according to the present method can be screened for biological activity using any conventional method. For example, PI3 kinase assays are disclosed by Yuan, et al. ((2005) Bioconjugate Chem, 16 (3): 669-675) and Fruman, et al. ((1999) Science 283:393-7). Assays for monitoring the assembly of peptide-MHC class II complexes (Song, et al. (1997) International Immunology 9:1709-1722) and mast cell exocytosis (Marquardt, et al. (1996) J. Immunol. 156:1942-1945) are known in the art as are assays for monitoring cell proliferation.

Sequence of PI3K-Beta (P42338 whole entry, species assumed): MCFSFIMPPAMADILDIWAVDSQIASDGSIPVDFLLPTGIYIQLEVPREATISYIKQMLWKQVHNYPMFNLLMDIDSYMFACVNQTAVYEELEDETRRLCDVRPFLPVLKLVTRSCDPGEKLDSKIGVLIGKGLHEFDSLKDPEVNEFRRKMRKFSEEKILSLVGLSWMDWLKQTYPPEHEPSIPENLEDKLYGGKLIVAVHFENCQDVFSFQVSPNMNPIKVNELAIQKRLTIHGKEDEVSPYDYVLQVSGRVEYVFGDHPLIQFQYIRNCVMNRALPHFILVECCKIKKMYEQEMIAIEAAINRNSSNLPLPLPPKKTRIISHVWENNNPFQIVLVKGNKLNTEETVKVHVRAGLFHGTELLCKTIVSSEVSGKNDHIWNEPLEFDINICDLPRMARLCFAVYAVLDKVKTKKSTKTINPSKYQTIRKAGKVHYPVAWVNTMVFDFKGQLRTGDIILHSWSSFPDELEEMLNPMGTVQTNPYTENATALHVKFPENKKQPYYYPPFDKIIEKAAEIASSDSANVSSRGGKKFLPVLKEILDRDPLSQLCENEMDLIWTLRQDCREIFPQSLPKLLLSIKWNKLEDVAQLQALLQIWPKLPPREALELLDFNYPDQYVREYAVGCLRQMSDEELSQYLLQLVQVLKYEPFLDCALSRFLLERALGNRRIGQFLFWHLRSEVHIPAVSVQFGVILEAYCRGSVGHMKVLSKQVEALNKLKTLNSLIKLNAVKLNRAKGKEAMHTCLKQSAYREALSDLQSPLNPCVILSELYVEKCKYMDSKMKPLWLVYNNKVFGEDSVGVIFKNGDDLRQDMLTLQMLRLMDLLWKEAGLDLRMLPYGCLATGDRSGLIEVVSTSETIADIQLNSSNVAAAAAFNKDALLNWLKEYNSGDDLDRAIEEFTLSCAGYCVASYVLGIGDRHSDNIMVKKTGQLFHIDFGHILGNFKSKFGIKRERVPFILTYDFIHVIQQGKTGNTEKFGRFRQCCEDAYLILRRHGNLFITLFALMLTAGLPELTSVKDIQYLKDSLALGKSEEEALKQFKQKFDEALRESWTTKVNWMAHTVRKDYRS
Sequence of PI3K-Beta (P27986 whole entry partner, species assumed): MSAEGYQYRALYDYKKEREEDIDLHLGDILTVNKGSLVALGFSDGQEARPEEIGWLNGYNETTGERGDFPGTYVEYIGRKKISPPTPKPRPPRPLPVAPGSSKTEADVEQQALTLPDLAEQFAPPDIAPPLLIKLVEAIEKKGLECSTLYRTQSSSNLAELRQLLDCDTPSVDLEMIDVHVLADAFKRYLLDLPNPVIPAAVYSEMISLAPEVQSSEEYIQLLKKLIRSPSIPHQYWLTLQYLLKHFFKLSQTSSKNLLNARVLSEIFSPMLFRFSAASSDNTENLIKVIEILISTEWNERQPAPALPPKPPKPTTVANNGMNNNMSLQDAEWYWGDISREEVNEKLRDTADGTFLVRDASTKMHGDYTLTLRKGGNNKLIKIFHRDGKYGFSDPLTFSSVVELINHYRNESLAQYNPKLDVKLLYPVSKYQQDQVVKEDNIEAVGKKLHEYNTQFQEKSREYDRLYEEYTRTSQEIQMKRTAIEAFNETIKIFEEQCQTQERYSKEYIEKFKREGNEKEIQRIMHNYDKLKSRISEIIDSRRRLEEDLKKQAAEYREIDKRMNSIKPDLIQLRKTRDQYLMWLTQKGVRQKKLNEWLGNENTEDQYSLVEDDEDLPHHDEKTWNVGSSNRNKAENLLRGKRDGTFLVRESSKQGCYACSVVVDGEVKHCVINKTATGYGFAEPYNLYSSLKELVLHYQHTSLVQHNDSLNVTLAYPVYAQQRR
Sequence of mammalian Polo-like kinase (P53350 whole entry): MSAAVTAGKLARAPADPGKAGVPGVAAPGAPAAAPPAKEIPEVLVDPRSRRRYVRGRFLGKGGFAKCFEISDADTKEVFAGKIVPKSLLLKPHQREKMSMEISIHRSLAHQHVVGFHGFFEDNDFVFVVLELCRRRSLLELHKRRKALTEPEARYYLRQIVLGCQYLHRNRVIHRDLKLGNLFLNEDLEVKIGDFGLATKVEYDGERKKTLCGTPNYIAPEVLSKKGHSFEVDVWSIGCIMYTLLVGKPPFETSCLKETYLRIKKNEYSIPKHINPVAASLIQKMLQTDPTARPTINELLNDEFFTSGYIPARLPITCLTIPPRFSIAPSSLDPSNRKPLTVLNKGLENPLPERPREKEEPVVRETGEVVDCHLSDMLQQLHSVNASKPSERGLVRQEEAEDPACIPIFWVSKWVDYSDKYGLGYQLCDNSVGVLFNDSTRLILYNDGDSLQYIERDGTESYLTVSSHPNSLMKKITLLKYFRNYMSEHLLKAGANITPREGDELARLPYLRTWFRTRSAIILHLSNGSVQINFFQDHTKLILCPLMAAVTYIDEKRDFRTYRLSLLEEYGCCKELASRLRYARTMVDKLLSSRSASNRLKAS

For `COC[C@H]1OC(=O)c2coc3c2[C@@]1(C)C1=C(C3=O)[C@@H]2CC[C@H](O)[C@@]2(C)C[C@H]1OC(C)=O` [17β-OH wortmannin], the IC50 (PI3-kinase) is listed as 0.5 nM.
For `CC12c3ccccc3C(=O)c3occ(c31)CC[C@H]2O` (stereo in doubt) [Compound 19-Syn, 1-Hydroxy-10b-methyl-1,2,3,10b-tetrahydro-5-oxa-acephenanthrylen-6-one], the “stability in a refrigerator” value ([1]; refrigerator) was “stable in a refrigerator for several weeks” and the “stability at room temperature” value ([1]; room temperature, prolonged periods, isolated brown oils) was “Neither isomer was stable at room temperature for prolonged periods”.
In the case of `COC[C@H]1OC(=O)c2coc3c2C1(C)C1=C(C3=O)[C@@H]2CCC(=O)C2(C)C[C@H]1OC(C)=O` (some centres unmarked) [wortmannin], the “inhibition of mammalian Polo-like kinase” value [2] is listed as “inhibit”.
With `C[C@]12COC(=O)c3coc(c31)C(=O)c1ccccc12` [Compound 47] the “activity against PI3K-Beta” value (PI3K-Beta) was “sub-micromolar”.
